Laboratory results taken from patent publication US20110158909A1, “Cationic Contrast Agents and Methods of Use Thereof” (Trustees of Boston University, priority 2008, published 2011).
Where two headings read alike, the source gives them in different places.

What was measured:
[1] = CT imaging of normal and trypsin degraded osteochondral plugs with anionic and cationic contrast agent; set-up: species or system bovine; conditions: for x-ray attenuation coefficient, normal vs trypsin degraded osteochondral plugs: 16 mg/mL bound iodine, overnight at 4° C., p<0.05
Method: In one experiment, eight osteochondral plugs (7 mm diameter) were harvested immediately after slaughter from the patella-femoral joint of three mature cows using a water-cooled, cylindrical diamond tipped cutter (See FIG. 2a for an example picture of osteochondral plugs). The plugs were divided into a normal cartilage group (n=4) and a trypsin degraded cartilage group (n=4). The osteochondral plugs of the degraded cartilage group were immersed in trypsin (2 mg/mL in 50 mM Tris, 20 mM CaCl2, pH=7.8) and incubated for 2 hours at 37° C.
All the plugs were immersed overnight in Cysto Conray II, an anionic, triiodinated contrast agent, diluted in PBS to 16 mg/mL of bound iodine at 4° C. to allow sufficient time for the contrast agent to diffuse into the cartilage. Sequential, 100μ thick, transaxial pQCT images were obtained at 70μ in plane resolution and 300μ inter-slice distance (XCT Research SA+, Stratec) for all the osteochondral plugs. The CT data were imported into Analyze™ (BIR, Mayo Clinic) to create reconstructed 3D images of the osteochondral plugs (see FIG. 2b for a representative image representing one slice of the reconstructed 3D image). A user specified contour was employed to segment the cartilage from the bone. The mean x-ray attenuation coefficient for cartilage was obtained by averaging over all pixels contained in cartilage on the transaxial CT images. The osteochondral plugs were then washed in PBS to remove the anionic contrast agent. The plugs were then re-immersed in the cationic triiodinated contrast agent at the same dilution and conditions used for the anionic contrast agent and repeat CT imaging of the osteochondral plugs was performed.
The GAG content of the articular cartilage was measured using a dimethylmethylene blue (DMMB) assay. A razor blade was used to separate the articular cartilage from the subchondral bone and the cartilage was stored at −20° C. After weighing the hydrated cartilage, it was lyophilized and weighed dry. The cartilage was digested with papain at 65° C. for 24 hours and diluted 10 to 100 times for the assay. Accounting for the dilution, the total GAG weight per mg cartilage dry weight was calculated.
The GAG content measured directly; the x-ray attenuation measured by CT for the anionic and cationic contrast agents were compared for the normal and trypsin degraded articular cartilage plugs using 1-way.ANOVA. Further, the x-ray attenuation measured by CT for both the anionic and cationic contrast agents was expressed as a function of the measured GAG content. The slopes of these relationships were compared to assess the relative sensitivity of these contrast agents to measure differences in the GAG content of articular cartilage.

[2] = Cartilage degradation study (chondroitinase ABC): CT attenuation vs GAG content by DMMB assay; set-up: species or system bovine; conditions: for slope of linear regression, average CT intensity vs GAG content: GAG content as 100×(mg of GAG)/(mg of hydrated cartilage)
Excerpt: In order to evaluate the ability of the contrast agents to diagnose an OA state, the hyaline cartilage of the osteochondral plugs was enzymatically degraded to mimic the GAG depletion observed in early OA by exposing the hyaline cartilage to different concentrations of the polysaccharide-specific hydrolase, chondroitinase ABC. After degradation, the same set of osteochondral plugs was exposed to each contrast agent consecutively, enabling a direct comparison of the resulting data. The average CT attenuation for each group was plotted as a function of the GAG content obtained by the DMMB assay and subjected to linear regression analysis (FIG. 7A). […] The variation in CT attenuation effected by diffusion of cationic contrast agent 6, with four positive charges, into the hyaline cartilage accounted for 79% of the variation in cartilage GAG, whereas the variation in CT attenuation effected by diffusion of cationic contrast agent 4, with a single positive charge, accounted for 56% of the variation in cartilage GAG. In comparison, the diffusion of anionic contrast agent iothalamate with a single negative charge accounted for 52% of the variation in cartilage GAG. The slope of the regression line represents the sensitivity of contrast enhanced CT attenuation of cartilage to changes in the GAG content of the cartilage. The cationic contrast agents were more sensitive (4: 1.4× and 6: 5.3×) to changes in cartilage GAG content than the anionic contrast agent iothalamate.

[3] = microCT imaging of intact rabbit femur; conditions: magnified view of cartilage surface, FIG. 8B
Excerpt: Contrast agent 6 was chosen for use in a rabbit femur study to highlight the ability of the cationic contrast agent to portray the variation in cartilage GAG concentration and cartilage thickness in an intact rabbit femur. […] The contrast-enhanced CT image was able to define the anisotropic distribution of GAG through the depth of the articular cartilage. […] The contrast enhanced CT image of the femur can also be used to determine the variable thickness of the articular cartilage. […] Cartilage thickness is greater at the femoral groove than at the condyles.

[4] = Passive diffusion of contrast agents into and out of articular cartilage, quantitative CT; set-up: species or system bovine; conditions: for average CT attenuation: time=5 h to time=24 h of immersion in contrast agent, 27 mg iodine/mL, pH 6.8, n=4
Method: The diffusion characteristics of the contrast agents were evaluated using bovine osteochondral plugs. Two cationic contrast agents, 4 and 6, were compared to a commercially-available singly-charged anionic contrast agent, iothalamate (Cysto Conray II®). Three groups of osteochondral plugs were prepared (n=4)—one for each contrast agent. The plugs were immersed in aqueous contrast agent solution (27 mg of organically-bound iodine/mL, pH 6.8) and removed at 1, 2, 4, 6, 18, and 24 h for imaging using quantitative CT (QCT). Following diffusion into the cartilage, the osteochondral plugs were immersed in saline solution and imaged at the same time points to monitor the diffusion of the contrast agent out of the cartilage. Articular cartilage has a natural anisotropic distribution of GAGs, with low GAG content in the superficial zone and higher GAG content in the middle and deep zones. This anisotropic distribution of GAG was reflected by the variation in x-ray attenuation in the CT images (FIG. 5B). […] In order to determine the initial rates of diffusion into the cartilage tissue, linear regression analyses were applied to the contrast-enhanced CT attenuation data for each osteochondral plug after immersion for 0, 1, and 2 h (Table 1). The slope represents the average rate of diffusion for each contrast agent. Cationic contrast agents 4 and 6 diffuse into cartilage 1.77 and 1.65 times faster, respectively, than the anionic agent iothalamate (FIG. 6).

[5] = 2 h immersion in contrast agent

| SMILES | x-ray attenuation coefficient, normal vs trypsin degraded osteochondral plugs [1] | sensitivity of relative change in x-ray attenuation to change in GAG content, compared to anionic contrast agent ([1]; normal vs trypsin degraded plugs) [×] | enhancement of CT images of cartilage tissue ([1]; osteochondral plugs) | level of CT attenuation in CT images of degraded and undegraded plugs [2] | relation of CT attenuation to GAG content [2] | sensitivity to changes in cartilage GAG content relative to iothalamate (slope of regression line) [2] [×] | variation in cartilage GAG accounted for by variation in CT attenuation [2] [%] | slope of linear regression, average CT intensity vs GAG content [2] | sensitivity to distribution of GAG in cartilage surface [3] | CT attenuation of cartilage in CT images [4, 5] | CT attenuation of cartilage in CT images ([4]; after 24 h in saline) | x-ray attenuation higher compared to iothalamate ([4]; after equilibration (24 h)) [%] | initial rate of diffusion into cartilage relative to iothalamate ([4]; linear regression of CT attenuation at 0, 1 and 2 h) [times faster] | average CT attenuation [4] | level of CT attenuation in CT images of degraded and undegraded plugs ([2]; after equilibrium in contrast agent, FIG. 7B) | reflection of anisotropic GAG distribution (deep vs superficial zone) in CT images ([4]; FIG. 5B) | CT attenuation of cartilage in CT images ([4]; after 2 h of immersion in saline) | removal from cartilage on immersion in saline ([4]; after immersion in saline for 6 hours) |
| --- | --- | --- | --- | --- | --- | --- | --- | --- | --- | --- | --- | --- | --- | --- | --- | --- | --- | --- |
| NCCNC(=O)c1c(I)c(N)c(I)c(C(=O)NCCN)c1I [contrast agent 2] | greater than that for the trypsin degraded osteochondral plugs | 4.3 | capable of enhancing CT images of the cartilage tissue | – | – | – | – | – | – | – | – | – | – | – | – | – | – | – |
| NCCNC(=O)c1c(I)cc(I)c(N)c1I [contrast agent 6] | – | – | – | high levels of CT attenuation | directly proportional | 5.3 | 79 | 13758 | sensitive to the variable distribution of GAG throughout the cartilage surface | medium levels | still showed medium levels of CT attenuation | ~60 | 1.65 | 900-1100 | – | – | – | – |
| CNC(=O)c1c(I)c(NC(C)=O)c(I)c(C(=O)O)c1I [iothalamate, reference compound] | inverse relation | – | – | – | indirectly related | – | 52 | negative slope | – | very little change | – | – | – | 500-600 | low levels of CT attenuation | less sensitive to subtle changes in the GAG content | began to decline | almost completely removed |
